We go through one molecule from patent US8846951B2 (AbbVie Inc., priority 2009, dated 2014).

One series has as its target T1, 5HT2B receptors (Homo sapiens, UniProt P41595).
T1 construct: expressed in transfected cells; host or cells: CHO-K1 cells
In words: Human 5-HT2B functional high throughput screening assay in CHO-K1 cells (calcium flux). It counts as cell-based. A digest of the protocol:
(§1)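 Serum-starved CHO-K1 cells carrying the receptor; Ca4 dye, 60 min RT. Test compound added after a 10 s baseline, fluorescence followed for 3 min. EC50 from 4-parameter fit; Emax given as % of serotonin effect.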
(A change in cytosolic calcium serves as a functional read-out for many receptors and channels.)

In the next series the target is T2, 5HT2C receptors (Homo sapiens, UniProt P28335).
T2 sequence (P28335 33-458): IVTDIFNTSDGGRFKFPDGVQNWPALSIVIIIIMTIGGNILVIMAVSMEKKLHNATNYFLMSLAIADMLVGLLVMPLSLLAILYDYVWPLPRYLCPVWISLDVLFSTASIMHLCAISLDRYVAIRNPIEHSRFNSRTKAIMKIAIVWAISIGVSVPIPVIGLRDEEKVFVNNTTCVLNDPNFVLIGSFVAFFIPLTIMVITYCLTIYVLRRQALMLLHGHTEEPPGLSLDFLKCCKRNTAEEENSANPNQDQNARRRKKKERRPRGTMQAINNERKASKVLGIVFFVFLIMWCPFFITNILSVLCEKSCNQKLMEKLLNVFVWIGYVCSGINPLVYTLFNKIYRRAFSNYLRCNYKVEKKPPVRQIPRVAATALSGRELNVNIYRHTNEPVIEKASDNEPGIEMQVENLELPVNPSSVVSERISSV
In words: Human 5-HT2C functional high throughput screening assay in CHO-K1 cells (calcium flux). The class given is cell-based. Set-up: expressed in transfected cells; host or cells: CHO-K1 cells. A digest of the protocol:
as §1

The test system of series [1] is conditioned avoidance response (CAR) behavior. Briefly: Conditioned avoidance responding in rats. The class given is in vivo, rat. The note with it: male Wistar rats. The protocol: The fact that antipsychotics have the unique ability to selectively suppress CAR behavior, made the CAR test a useful tool for the screening of new, potentially antipsychotic compounds. […] Animals Male Wistar rats (9-11 weeks old, Charles River, Germany) were pair-housed and allowed ad-libitum access to food and water. A 12-hour light/dark cycle was imposed with lights-on period between 0530 and 1730 hours. All testing occurred between 700 and 1300 hours. All procedures were approved by Abbott Institutional Animal Care and Use Committee (USA) or Animal Welfare Officer (Germany) and were conducted in accordance with the National Institutes of Health Guide for Care and Use of Laboratory Animals guidelines and applicable national laws in the facilities accredited by the Association for the Assessment and Accreditation of Laboratory Animal Care. Methods Wistar rats are exposed to a conditioned stimulus CS (a 2.9-kHz tone of 10 second duration), which is a signal for the animal that it must move into the other chamber in order to avoid an immediately ensuing footshock US (0.5 mA, 10 second, tone continues during shock presentation). Once the shock has begun, the animal can still escape it by moving to the other chamber. Each session is limited to a maximum of 40 trials (intertrial interval 10-90 seconds). The animals generally learn quickly to change chambers upon the conditioned stimulus and thus avoid further shocks. Scored are: • Avoided responses=crossings into other compartment within 10 seconds of tone presentation; • Escaped responses=crossings between 10-20 seconds of tone presentation; • Failures=crossings after cessation of tone-shock presentation or no crossing. […] At the test sessions (=CS-shock pairings), animals are pre-treated with a test drug or vehicle 30 minutes before commencement of the session.

SMILES strings stand for the structures. Bounds are passed on as bounds.

T1 sequence (P41595 whole entry): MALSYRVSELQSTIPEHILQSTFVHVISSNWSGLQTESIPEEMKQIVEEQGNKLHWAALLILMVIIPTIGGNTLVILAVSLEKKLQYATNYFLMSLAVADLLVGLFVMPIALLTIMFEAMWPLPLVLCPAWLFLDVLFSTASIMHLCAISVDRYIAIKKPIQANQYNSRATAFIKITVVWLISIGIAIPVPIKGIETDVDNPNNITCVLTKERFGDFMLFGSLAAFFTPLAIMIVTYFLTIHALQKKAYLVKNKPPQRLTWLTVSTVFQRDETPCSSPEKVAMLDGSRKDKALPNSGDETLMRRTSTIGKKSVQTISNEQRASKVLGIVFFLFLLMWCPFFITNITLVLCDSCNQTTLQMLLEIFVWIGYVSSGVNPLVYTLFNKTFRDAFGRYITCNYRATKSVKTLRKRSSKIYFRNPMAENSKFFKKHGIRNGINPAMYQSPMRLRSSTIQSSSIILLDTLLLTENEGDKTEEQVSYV

Broadly, the EC50 is the midpoint of the concentration-response curve. For orientation: Emax means the size of the effect at its maximum, as opposed to the concentration needed. Take `CN1C[C@@H]2CNC(=O)c3cc(-c4ccc(F)cc4)ccc3[C@H]2C1` [Example 115, (3aS,10bS)-8-(4-Fluorophenyl)-2-methyl-1,2,3,3a,4,5-hexahydrobenzo[e]pyrrolo[3,4-c]azepin-6(10bH)-one]: the EC50 on 5HT2B receptors (5-HT2B agonist activity, CHO-K1 cells, calcium flux, read-out: EC50) is over 10000 nM; at 5HT2C receptors (5-HT2C agonist activity, CHO-K1 cells, calcium flux, read-out: EC50), 2 nM. The Emax result was “inactive” at 5HT2B receptors (5-HT2B, maximum functional response as percentage relative to the effect of serotonin) and over 120% on 5HT2C receptors (CHO-K1, 5-HT2C, maximum functional response as percentage relative to the effect of serotonin, read-out: Emax). In series [1] (acute, 30 minutes before session), the “conditioned avoidance behavior (avoided responses)” value is listed as “significantly suppressed conditioned avoidance behavior”. Also, the number of failures entry in series [1] (indicator of sedation or extrapyramidal side effects) is on record as “without affecting the number of failures”.
